US6248785A, “IL-8 receptor antagonists” (SmithKline Beecham Corporation, priority 1999, dated 2001)

Target: T1, recombinant IL-8 Rb, or Type II, receptor (permissive receptor) (Homo sapiens, UniProt P25025)
T1 construct: expressed in transfected cells; host or cells: Chinese hamster ovary (CHO) cells, membranes
T1 sequence (P25025 1-360): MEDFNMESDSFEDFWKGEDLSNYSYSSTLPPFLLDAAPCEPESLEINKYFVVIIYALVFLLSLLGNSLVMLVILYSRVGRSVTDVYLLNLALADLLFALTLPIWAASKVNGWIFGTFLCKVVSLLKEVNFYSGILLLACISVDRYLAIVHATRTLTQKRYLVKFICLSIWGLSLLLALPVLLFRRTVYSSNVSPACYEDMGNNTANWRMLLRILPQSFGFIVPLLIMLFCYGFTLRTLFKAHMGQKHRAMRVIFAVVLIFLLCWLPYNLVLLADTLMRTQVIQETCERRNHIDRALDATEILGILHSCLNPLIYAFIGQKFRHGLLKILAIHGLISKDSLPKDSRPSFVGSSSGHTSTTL
Experiment: IL-8 receptor binding assay, permissive model (125I IL-8 / 125I Gro-a, CHO membranes)
Settings: recombinant human IL-8Rb membranes from Chinese hamster ovary cells; 125I IL-8 (0.25 nM) or 125I Gro-a; 1 hour at room temperature
Description: [^125 I] IL-8 (human recombinant) is obtained from Amersham Corp., Arlington Heights, Ill., with specific activity 2000 Ci/mmol. Gro-a is obtained from NEN-New England Nuclear. All other chemicals are of analytical grade. High levels of recombinant human IL-8 type a and b receptors were individually expressed in Chinese hamster ovary cells as described previously (Holmes, et al., Science, 1991, 253, 1278). The Chinese hamster ovary membranes were homogenized according to a previously described protocol (Haour, et al., J Biol Chem., 249 pp 2195-2205 (1974)). Except that the homogenization buffer is changed to 10 mM Tris-HCL, 1 mM MgSO4, 0.5 mM EDTA (ethylene-diaminetetra-acetic acid), 1 mMPMSF (a-toluenesulphonyl fluoride), 0.5 mg/L Leupeptin, pH 7.5. Membrane protein concentration is determined using Pierce Co. micro-assay kit using bovine serum albumin as a standard. All assays are performed in a 96-well micro plate format. Each reaction mixture contains ^125 I IL-8 (0.25 nM) or ^125 I Gro-a and 0.5 μg/mL of IL-8Ra or 1.0 μg/mL of IL-8Rb membranes in 20 mM Bis-Trispropane and 0.4 mM Tris HCl buffers, pH 8.0, containing 1.2 mM MgSO4, 0.1 mM EDTA, 25 mM NaCl and 0.03% CHAPS. […] The filter is then dried and counted on the Betaplate liquid scintillation counter. […]

IC50 in the permissive models for IL-8 receptor inhibition: < 50 µg/mL
SMILES: N#Cc1ccc(NC(=C[N+](=O)[O-])Nc2ccccc2Br)c(O)c1 [Example 1, 1-Nitro-2-[2-hydroxy-4-cyanophenylamino]-2-[2-bromophenylamino]ethylene]
